Values of other authors in PubChem BioAssay AID1259409 (Chemical Carcinogenesis Research Information System (CCRIS), 2018).

System: rodent chemically induced tumor inhibition, incidence and multiplicity
Assay: CCRIS tumor inhibitor studies

CC1=C(/C=C/C(C)=C/C=C/C(C)=C/C(=O)O)C(C)(C)CCC1
tumour outcome (control, treated, inhibition, significance) (Carcinogen: 7,12-DIMETHYLBENZ[A]ANTHRACENE, 57-97-6, Dose [Inhibitor]: 68 NMOL IN 0.2 ML ACETONE ONCE 1 HR BEFORE APPLICATION OF CARCINOGEN (STUDY DURATION: 21 WK), Route [Inhibitor]: DERMAL, Species: MOUSE, Strain/Sex: CD-1/FEMALE, Target Tissue: Type of Lesion: SKIN: PAPILLOMA, Dose [Carcinogen]: 0.2 UMOL IN 0.2 ML ACETONE ONCE, Promoter: 12-O-TETRADECANOYLPHORBOL-13-ACETATE, 16561-29-8): 95%, 92%, 3%, not significant
tumour outcome (control, treated, inhibition, significance) (Carcinogen: 7,12-DIMETHYLBENZ[A]ANTHRACENE, 57-97-6, Dose [Inhibitor]: 170 NMOL IN 0.2 ML ACETONE 1 HR PRIOR TO EACH PROMOTER DOSE FOR 12 WK (STUDY DURATION: 14 WK), Route [Inhibitor]: DERMAL, Species: MOUSE, Strain/Sex: SENCAR/FEMALE, Target Tissue: Type of Lesion: SKIN: PAPILLOMA, Dose [Carcinogen]: 200 NMOL IN 0.2 ML ACETONE ONCE, Promoter: 12-O-TETRADECANOYLPHORBOL-13-ACETATE, 16561-29-8): 100%, 87%, 13%, not calculated
tumour outcome (control, treated, inhibition, significance) (Carcinogen: 7,12-DIMETHYLBENZ[A]ANTHRACENE, 57-97-6, Dose [Inhibitor]: 170 NMOL IN 0.2 ML ACETONE 1 HR PRIOR TO EACH PROMOTER DOSE FOR 20 WK (STUDY DURATION: 22 WK), Route [Inhibitor]: DERMAL, Species: MOUSE, Strain/Sex: CD-1/FEMALE, Target Tissue: Type of Lesion: SKIN: PAPILLOMA, Dose [Carcinogen]: 200 NMOL IN 0.2 ML ACETONE ONCE, Promoter: 12-O-TETRADECANOYLPHORBOL-13-ACETATE, 16561-29-8): 94%, 63%, 33%, not calculated
tumour outcome (control, treated, inhibition, significance) (Carcinogen: DIETHYLNITROSAMINE, 55-18-5, Dose [Inhibitor]: 0, 10000 IU/KG IN CORN OIL FOR DURATION OF STUDY BEGINNING 7 D PRIOR TO FIRST CARCINOGEN DOSE (STUDY DURATION: 6 MO), Route [Inhibitor]: GAVAGE, Species: RAT, Strain/Sex: BD6/FEMALE, Target Tissue: Type of Lesion: ESOPHAGUS: TUMOR, Dose [Carcinogen]: 80 MG/KG BW 1/WK FOR 8 WK, Promoter: NONE USED): 20%, 13%, 35%, not significant
tumour outcome (control, treated, inhibition, significance) (Carcinogen: DIETHYLNITROSAMINE, 55-18-5, Dose [Inhibitor]: 0, 10000 IU/KG IN CORN OIL FOR DURATION OF STUDY BEGINNING 7 D PRIOR TO FIRST CARCINOGEN DOSE (STUDY DURATION: 6 MO), Route [Inhibitor]: GAVAGE, Species: RAT, Strain/Sex: BD6/FEMALE, Target Tissue: Type of Lesion: LIVER: TUMOR, Dose [Carcinogen]: 80 MG/KG BW 1/WK FOR 8 WK, Promoter: NONE USED): 83%, 91%, -10%, not significant
tumour outcome (control, treated, inhibition, significance) (Carcinogen: DIETHYLNITROSAMINE, 55-18-5, Dose [Inhibitor]: 0, 20000 IU/KG IN CORN OIL FOR DURATION OF STUDY BEGINNING 7 D PRIOR TO FIRST CARCINOGEN DOSE (STUDY DURATION: 6 MO), Route [Inhibitor]: GAVAGE, Species: RAT, Strain/Sex: BD6/FEMALE, Target Tissue: Type of Lesion: ESOPHAGUS: TUMOR, Dose [Carcinogen]: 80 MG/KG BW 1/WK FOR 8 WK, Promoter: NONE USED): 30%, 13%, 57%, not significant
tumour outcome (control, treated, inhibition, significance) (Carcinogen: DIETHYLNITROSAMINE, 55-18-5, Dose [Inhibitor]: 0, 20000 IU/KG IN CORN OIL FOR DURATION OF STUDY BEGINNING 7 D PRIOR TO FIRST CARCINOGEN DOSE (STUDY DURATION: 6 MO), Route [Inhibitor]: GAVAGE, Species: RAT, Strain/Sex: BD6/FEMALE, Target Tissue: Type of Lesion: LIVER: TUMOR, Dose [Carcinogen]: 80 MG/KG BW 1/WK FOR 8 WK, Promoter: NONE USED): 85%, 93%, -9%, not significant
tumour outcome (control, treated, inhibition, significance) (Carcinogen: N-METHYL-N'-NITRO-N-NITROSOGUANIDINE, 70-25-7, Dose [Inhibitor]: 0, 0.75 MG/KG BW 1/2 D FOR 26 WK BEGINNING POST CARCINOGEN TREATMENT (STUDY DURATION: 52 WK), Route [Inhibitor]: SUBCUTANEOUS, Species: RAT, Strain/Sex: WISTAR/MALE, Target Tissue: Type of Lesion: STOMACH: ADENOCARCINOMA, Dose [Carcinogen]: 25 UG/ML IN DRINKING WATER FOR 25 WK, Promoter: SODIUM CHLORIDE, 7647-14-5): 17/20 (85%), 8/20 (40%), 53% p<0.01
tumour outcome (control, treated, inhibition, significance) (Carcinogen: N-METHYL-N'-NITRO-N-NITROSOGUANIDINE, 70-25-7, Dose [Inhibitor]: 0, 1.5 MG/KG BW 1/2 D FOR 26 WK BEGINNING POST CARCINOGEN TREATMENT (STUDY DURATION: 52 WK), Route [Inhibitor]: SUBCUTANEOUS, Species: RAT, Strain/Sex: WISTAR/MALE, Target Tissue: Type of Lesion: STOMACH: ADENOCARCINOMA, Dose [Carcinogen]: 25 UG/ML IN DRINKING WATER FOR 25 WK, Promoter: SODIUM CHLORIDE, 7647-14-5): 17/20 (85%), 7/20 (35%), 59%, p<0.01
tumour outcome (control, treated, inhibition, significance) (Carcinogen: N-NITROSO-N-METHYLUREA, 684-93-5, Dose [Inhibitor]: 0, 60 MG/KG OF DIET FOR 3 MO BEGINNING 1 WK POST CARCINOGEN DOSE (STUDY DURATION: 100 D), Route [Inhibitor]: ORAL, Species: RAT, Strain/Sex: SPRAGUE-DAWLEY/FEMALE, Target Tissue: Type of Lesion: MAMMARY GLAND: TUMOR, Dose [Carcinogen]: 50 MG/KG BW ONCE, Promoter: NONE USED): 100%, 92%, 8%, not significant
tumour outcome (control, treated, inhibition, significance) (Carcinogen: N-NITROSO-N-METHYLUREA, 684-93-5, Dose [Inhibitor]: 0, 120 MG/KG OF DIET FOR 13 MO BEGINNING 1 WK POST CARCINOGEN DOSE (STUDY DURATION: 100 D), Route [Inhibitor]: ORAL, Species: RAT, Strain/Sex: SPRAGUE-DAWLEY/FEMALE, Target Tissue: Type of Lesion: MAMMARY GLAND: TUMOR, Dose [Carcinogen]: 50 MG/KG BW ONCE, Promoter: NONE USED): 100%, 83%, 17%, not significant
